This is an account of results in patent publication US20070099237A1, “Reaction co-crystallization of molecular complexes or co-crystals” (The Regents of The University of Michigan, priority 2005, published 2007).

By solubility is commonly meant the concentration that dissolves in the medium under given conditions.

The data set is described as follows: Solubility of co-crystal and reactants in organic solvents at 25° C. Type of data set: physicochemical. The settings on record: mean +/− deviation; for solubility: organic solvent or mixture, thermodynamic from solid. On the procedure:
The predicted reduction in solubility of the co-crystal is borne out experimentally as illustrated, for example in FIG. 4, which uses the carbamazepine nicotinamide 1:1 co-crystal (CBZ:NCT) for illustration. The CBZ:NCT co-crystal is known; solubilities for the co-crystal and the reactants CBZ and NCT in three solvents (ethanol, […]) are given in the table.
Solubilities are given at 25° C. and are expressed as the mean +/− the deviation for a sample size of 3. It is noted that only in ethyl acetate is the co-crystal the least soluble component. Accordingly, the co-crystal can be precipitated from equimolar solutions of CBZ and NCT in ethyl acetate to produce the co-crystal by cooling or evaporation methods.

Setting [1] is: 2-propanol, sample size 3, read-out: Solubility in 2-Propanol.
[2] abbreviates: ethanol, sample size 3, read-out: Solubility in Ethanol.
[3] abbreviates: ethyl acetate, sample size 3, read-out: Solubility in Ethyl acetate.

≈ marks a conversion by molar mass, not a printed value. Like-named read-outs stand apart in the source and are kept apart here.

`NC(=O)c1cccnc1` [NCT(I), Nicotinamide]: the solubility was determined as 496 ± 4 mM (≈ 60.6 mg/mL) under setting [1], 841 ± 8 mM (≈ 103 mg/mL) under setting [2] and 98 ± 2 mM (≈ 12 mg/mL) under setting [3].

Turning to `NC(=O)N1c2ccccc2C=Cc2ccccc21` [CBZ(III), carbamazepine], the solubility runs as follows: under setting [1], 39 ± 3 mM (≈ 9.21 mg/mL); under setting [2], 108 ± 0.1 mM (≈ 25.5 mg/mL); under setting [3], 44 ± 0.1 mM (≈ 10.4 mg/mL).

`NC(=O)N1c2ccccc2C=Cc2ccccc21.NC(=O)c1cccnc1` [CBZ:NCT, Carbamazepine:Nicotinamide co-crystal]: the “Solubility in 2-Propanol” value (2-propanol, sample size 3) is 44 ± 3 mM. Moreover, the “Solubility in Ethanol” value (ethanol, sample size 3) is 116 ± 3 mM. Further, the “Solubility in Ethyl acetate” value (ethyl acetate, sample size 3) amounted to 24 ± 1 mM.
